Results taken from patent publication US8586530B2, “Modulation of inhibition of ferrochelatase by N-methyl protoporphyrin” (University of South Florida, priority 2006, dated 2013).

How the values were obtained:
wild-type ferrochelatase = target: T1, wild-type ferrochelatase (Mus musculus, UniProt P22315); assay: Transient kinetic analysis of NMPP inhibition (stopped-flow, zinc-protoporphyrin formation); format: biochemical, murine
T1 construct: In wild-type, murine, mature ferrochelatase, five tryptophan residues; penta-histidine tag (N); made in house; host or cells: E. coli BL21(DE3)
T1 sequence (P22315 54-422): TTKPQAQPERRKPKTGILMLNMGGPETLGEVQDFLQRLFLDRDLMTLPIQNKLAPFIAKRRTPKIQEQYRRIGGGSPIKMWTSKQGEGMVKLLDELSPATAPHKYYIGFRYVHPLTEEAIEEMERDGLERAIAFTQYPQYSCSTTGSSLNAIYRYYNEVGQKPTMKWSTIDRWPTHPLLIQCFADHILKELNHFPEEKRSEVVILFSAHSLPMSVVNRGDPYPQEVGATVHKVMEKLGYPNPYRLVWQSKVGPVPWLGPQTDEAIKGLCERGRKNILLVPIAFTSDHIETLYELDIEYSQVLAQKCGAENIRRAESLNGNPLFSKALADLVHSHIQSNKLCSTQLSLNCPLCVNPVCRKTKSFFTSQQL
Procedure: Enzyme (0.5 μM) was reacted with protoporphyrin (5 μM) and zinc-acetate (15 μM) in the presence of various concentrations of NMPP. The pseudo first-order rate constant k was obtained from analysis of the time course (see Materials and Methods and FIG. 4) and plotted against NMPP concentration. The enzymes used in each set were: A. wild-type ferrochelatase; B. variant P255R; C. variant P255G.
In order to obtain the pseudo first-order rate constants for NMPP binding, the kinetic traces for zinc-protoporphyrin formation in the presence of various concentrations of inhibitor were fitted to equation 3. […] The data were fit to equation 1 for a two step process:
[formula] where k is the pseudo first-order rate constant for the approach to the steady-state phase, I0 is the inhibitor concentration, S0 is the initial substrate concentration,
[formula] is the apparent inhibition constant, Ki^app, and k2 and k−2 are the second step forward and reverse rate constants, respectively. […] A two kinetic step process for binding of NMPP to either wild-type ferrochelatase or P255R (i.e., a fast, initial step for NMPP binding to the enzyme, followed by a slow step, possibly related to a conformational rearrangement of the protein-inhibitor complex) is consistent with the porphyrin-triggered conformational change of the active-site pocket deduced from the analysis of the crystal structure of B. subtilis ferrochelatase with bound N-methyl mesoporphyrin in comparison with that of the unliganded protein. […] Therefore the diminished inhibition of variant P255R by NMPP (Ki^app=1 μM vs. Ki^app=3 nM for wild-type ferrochelatase) cannot be accounted for by differences in these rates.
Transient Kinetic Analysis. The kinetic steps involved in NMPP binding to ferrochelatase were assessed using stopped-flow absorption spectroscopic analysis by monitoring the enzymatic reaction in the presence of various concentrations of the inhibitor NMPP. The reactions were performed using a rapid scanning stopped-flow spectrophotometer (model RSM-1000; OLIS Inc.), equipped with a stopped-flow mixer and an observation chamber with an optical path-length of 4 mm. The dead time of the instrument is ˜2 ms. Scan spectra spanning the wavelength range of 347 to 574 nm were collected at a rate of 1000 scan/sec. The syringes containing the reaction components and the stopped-flow cell were maintained at 30° C. using an external water-bath. The concentrations of reagents loaded into each syringe were two-fold greater than the final concentrations in the observation chamber. Enzymatic activity was monitored by following the increase in absorbance at 420 nm for zinc-protoporphyrin production using Zn^2+ and protoporphyrin as substrates.
The enzyme and substrate stock solutions were diluted in 100 mM Tris-acetate, pH 8.0, containing 0.5% Tween-80. The stock solutions for substrates and inhibitor were prepared as follows: A 3 mM zinc-acetate solution was made by dissolving zinc-acetate in distilled and deionized H2O. A 200 μM protoporphyrin solution was prepared by dissolving protoporphyrin 1× in 50 mM NH4OH containing 0.5% Tween-80. A 2 mM NMPP solution was prepared by dissolving NMPP in 100 mM NH4OH containing 0.5% Tween-80. Typically, a 2 mL solution that was 1 μM in ferrochelatase and 10 μM in protoporphyrin was pre-incubated on ice for 30 min. The porphyrin-enzyme solution was titrated with NMPP. The mixture was subsequently transferred to one of the stopped-flow syringes. The other stopped-flow syringe was loaded with a reaction buffer solution of ˜2 mL that was 30 μM in zinc-acetate. The enzymatic reaction was initiated by mixing the contents from both syringes and reaction progression was monitored by following the increase in absorbance at 420 nm. The data were analyzed by fitting the observed absorbance values to equation 4: […]

ferrochelatase = conditions: background statement, potent inhibitor of ferrochelatase; cited from earlier work

Substance: N-methyl protoporphyrin [NMPP]
- second step forward rate constant k2 (wild-type ferrochelatase): 6.4 s⁻¹
- second step reverse rate constant k−2 (wild-type ferrochelatase): 24.5 s⁻¹
- Ki (wild-type ferrochelatase; two-step fit (equation 1), read-out: apparent inhibition constant Ki^app): 3 nM
- Ki (ferrochelatase): ~10 nM
